Measured values reported in patent US10183943B2, “Heterocyclic compounds and their use in preventing or treating bacterial infections” (MUTABILIS, priority 2015, dated 2019).

Tests used:
OXA-48 = target: T1, OXA-48 (Klebsiella pneumoniae, UniProt Q6XEC0); test: β-lactamase inhibitory activity, determination of IC50 (nitrocefin hydrolysis); assay type: biochemical; conditions: class (D); nitrocefin 200 μM, 30 min pre-incubation; read-out: IC50 β-lactamase OXA-48
T1 construct: made in house; host or cells: E. coli

[1] = test system: E. coli UFR32 (TEM-1, VEB-1, OXA-10); test: MIC of compounds alone, broth microdilution; assay type: cell-based; conditions: Escherichia coli; strain UFR32 (E. coli); read-out: MIC compounds of the invention alone
Summary of the method: (§1)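 Read-out: lowest compound concentration with no growth by visual inspection. CLSI M7-A7 broth microdilution, cation-adjusted Mueller-Hinton broth, inoculum 5×10^5 cfu/mL from log-phase culture, 16-20 h, 35° C, ambient air; compound tested without β-lactam.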

E. coli RGN238 (OXA-1) = test: MIC of compounds alone, broth microdilution; assay type: cell-based; conditions: Escherichia coli; strain RGN238 (E. coli); read-out: MIC compounds of the invention alone
Summary of the method: as §1

[2] = test system: E. cloacae 260508 (TEM-1, CTX-M-15); test: MIC of compounds alone, broth microdilution; assay type: cell-based; conditions: Enterobacter cloacae, read-out: MIC compounds of the invention alone
Summary of the method: as §1

[3] = test system: K. pneumoniae 6299 (TEM-1, SHV-11, OXA-163); test: MIC of compounds alone, broth microdilution; assay type: cell-based; conditions: Klebsiella pneumoniae; strain 6299 (K. pneumoniae); read-out: MIC compounds of the invention alone
Summary of the method: as §1

[4] = test system: E. coli UFR18 (CTX-M-15, OXA-204); test: MIC of compounds alone, broth microdilution; assay type: cell-based; conditions: Escherichia coli; strain UFR18 (E. coli); read-out: MIC compounds of the invention alone
Summary of the method: as §1

[5] = test system: P. aeruginosa CIP107051 (TEM-24); test: MIC of compounds alone, broth microdilution; assay type: cell-based; conditions: Pseudomonas aeruginosa; strain CIP107051 (P. aeruginosa); read-out: MIC compounds of the invention alone
Summary of the method: as §1

[6] = test system: K. pneumoniae UFR68 (TEM-1, SHV-11, CTX-M-15, KPC-3); test: MIC of compounds alone, broth microdilution; assay type: cell-based; conditions: Klebsiella pneumoniae, read-out: MIC compounds of the invention alone
Summary of the method: as §1

[7] = test system: E. cloacae UFR85 (TEM-1, CTX-M-15, AmpC); test: MIC of compounds alone, broth microdilution; assay type: cell-based; conditions: Enterobacter cloacae, read-out: MIC compounds of the invention alone
Summary of the method: as §1

[8] = test system: K. pneumoniae BAA-1898 (TEM-1, SHV-11, SHV-12, KPC-2); test: MIC of compounds alone, broth microdilution; assay type: cell-based; conditions: Klebsiella pneumoniae, BAA1898; strain BAA-1898 (K. pneumoniae); read-out: MIC compounds of the invention alone
Summary of the method: as §1

[9] = test system: K. pneumoniae 160143 (TEM-1, SHV-1, CTX-M-15, KPC-2, OXA-1); test: MIC of compounds alone, broth microdilution; assay type: cell-based; conditions: Klebsiella pneumoniae, read-out: MIC compounds of the invention alone
Summary of the method: as §1

[10] = test system: E. cloacae UFR70 (TEM-1, CTX-M-15, CMY-2, OXA-1, Porin loss); test: MIC of compounds alone, broth microdilution; assay type: cell-based; conditions: Enterobacter cloacae, read-out: MIC compounds of the invention alone
Summary of the method: as §1

[11] = test system: K. oxytoca UFR21 (TEM-1, CTX-M-15, OXA-48); test: MIC of compounds alone, broth microdilution; assay type: cell-based; conditions: Klebsiella oxytoca, read-out: MIC compounds of the invention alone
Summary of the method: as §1

[12] = test system: K. pneumoniae UFR77 (CMY-2); test: MIC of compounds alone, broth microdilution; assay type: cell-based; conditions: Klebsiella pneumoniae; strain UFR77 (K. pneumoniae); read-out: MIC compounds of the invention alone
Summary of the method: as §1

[13] = test system: K. pneumoniae 200047 (TEM-1, SHV-32, CTX-M-15, OXA-1); test: MIC of compounds alone, broth microdilution; assay type: cell-based; conditions: Klebsiella pneumoniae, read-out: MIC compounds of the invention alone
Summary of the method: as §1

[14] = test system: E. coli UFR74 (SHV-1, DHA-1); test: MIC of compounds alone, broth microdilution; assay type: cell-based; conditions: Escherichia coli; strain UFR74 (E. coli); read-out: MIC compounds of the invention alone
Summary of the method: as §1

[15] = test system: K. pneumoniae UFR39 (CTX-M-15, NDM-1); test: MIC of compounds alone, broth microdilution; assay type: cell-based; conditions: Klebsiella pneumoniae; strain UFR39 (K. pneumoniae); read-out: MIC compounds of the invention alone
Summary of the method: as §1

[16] = test system: E. coli 131119 (TEM-1, OXA-48); test: MIC of compounds alone, broth microdilution; assay type: cell-based; conditions: Escherichia coli; strain 131119 (E. coli); read-out: MIC compounds of the invention alone
Summary of the method: as §1

[17] = test system: E. coli UFR61O (TEM-1, KPC-2); test: MIC of compounds alone, broth microdilution; assay type: cell-based; conditions: Escherichia coli; strain UFR61O (E. coli); read-out: MIC compounds of the invention alone
Summary of the method: as §1

E. cloacae P99 (AmpC) = test: MIC of compounds alone, broth microdilution; assay type: cell-based; conditions: Enterobacter cloacae; strain P99 (E. cloacae); read-out: MIC compounds of the invention alone
Summary of the method: as §1

[18] = test system: E. coli UFR41 (TEM-1, CTX-M-15, CMY-2, OXA-1, NDM-4); test: MIC of compounds alone, broth microdilution; assay type: cell-based; conditions: Escherichia coli, read-out: MIC compounds of the invention alone
Summary of the method: as §1

[19] = test system: K. pneumoniae UFR24 (TEM-1, SHV-2, SHV-11, OXA-1, OXA-48, OXA-47); test: MIC of compounds alone, broth microdilution; assay type: cell-based; conditions: Klebsiella pneumoniae; strain UFR24 (K. pneumoniae); read-out: MIC compounds of the invention alone
Summary of the method: as §1

[20] = test system: E. cloacae UFR51 (SHV-12, IMP-8); test: MIC of compounds alone, broth microdilution; assay type: cell-based; conditions: Enterobacter cloacae; strain UFR51 (E. cloacae); read-out: MIC compounds of the invention alone
Summary of the method: as §1

OXA-15 = target: T2, OXA-15 (Pseudomonas aeruginosa, UniProt Q51574); test: biochemical
T2 construct: made in house; host or cells: E. coli

OXA-1 = target: T3, OXA-1 (Escherichia coli, UniProt P13661); test: β-lactamase inhibitory activity, determination of IC50 (nitrocefin hydrolysis); assay type: biochemical; conditions: class (D); nitrocefin 200 μM, 30 min pre-incubation; read-out: IC50 β-lactamase OXA-1
T3 construct: made in house; host or cells: E. coli

SHV-1 = target: T4, SHV-1 (Klebsiella pneumoniae, UniProt P0AD64); test: as above; assay type: biochemical
T4 construct: made in house; host or cells: E. coli

TEM-1 = target: T5, TEM-1 (Escherichia coli, UniProt P62593); test: as above; assay type: biochemical
T5 construct: made in house; host or cells: E. coli

KPC-2 = target: T6, KPC-2 (Klebsiella pneumoniae, UniProt Q9F663); test: as above; assay type: biochemical; conditions: class (A); nitrocefin 200 μM, 30 min pre-incubation; read-out: IC50 β-lactamase KPC-2
T6 construct: made in house; host or cells: E. coli

AmpC P. aeruginosa = AmpC P. aeruginosa (Pseudomonas aeruginosa, UniProt P24735); test: as above
OXA-11 = target: T7, OXA-11 (Pseudomonas aeruginosa, UniProt Q06778); test: as above; assay type: biochemical
T7 construct: made in house; host or cells: E. coli

AmpC (P99) = AmpC (P99) (Enterobacter cloacae, UniProt P05364); test: as above
CTX-M-15 = target: T8, CTX-M-15 (Escherichia coli, UniProt Q9EXV5); test: as above; assay type: biochemical; conditions: class (A); nitrocefin 200 μM, 30 min pre-incubation; read-out: IC50 β-lactamase CTX-M-15
T8 construct: made in house; host or cells: E. coli

[21] = test system: E. coli 190317 (TEM-1, SHV-12, CTX-M-15, OXA-1); test: MIC of compounds alone, broth microdilution; assay type: cell-based; conditions: Escherichia coli, read-out: MIC compounds of the invention alone
Summary of the method: as §1

[22] = test system: E. cloacae UFR51 (SHV-12, IMP-8); test: MIC of ceftazidime (CAZ) in combination with compounds at 4 μg/mL, broth microdilution; assay type: cell-based; conditions: strain UFR51; MIC of CAZ with compound fixed at 4 μg/mL
Method: Method 2: MIC of Compounds and Synergy with Ceftazidime Against Bacterial Isolates (Table 2 and 3)
Compounds of the present invention were assessed against genotyped bacterial strains alone or in combination with the β-lactam ceftazidime (CAZ). In the assays, MICs of said compounds, or of ceftazidime at fixed concentrations of said compounds were determined by the broth microdilution method according to the Clinical Laboratory Standards Institute (CLSI-M7-A7). Briefly, compounds alone according to the invention were prepared in DMSO and spotted (2 μL each) on sterile polystyrene plates (Corning, 3788). Compounds and ceftazidime dilutions were prepared in DMSO and spotted (1 μL each) on sterile polystyrene plates (Corning, 3788). Log phase bacterial suspensions were adjusted to a final density of 5×10^5 cfu/mL in cation-adjusted Mueller-Hinton broth (Becton-Dickinson) and added to each well (98 μL). Microplates were incubated for 16-20 h at 35° C. in ambient air. The MIC of the compounds was defined as the lowest concentration of said compounds that prevented bacterial growth as read by visual inspection. The MIC of ceftazidime at each compound concentration was defined as the lowest concentration of ceftazidime that prevented bacterial growth as read by visual inspection.

T8 sequence (Q9EXV5 entry or part of it): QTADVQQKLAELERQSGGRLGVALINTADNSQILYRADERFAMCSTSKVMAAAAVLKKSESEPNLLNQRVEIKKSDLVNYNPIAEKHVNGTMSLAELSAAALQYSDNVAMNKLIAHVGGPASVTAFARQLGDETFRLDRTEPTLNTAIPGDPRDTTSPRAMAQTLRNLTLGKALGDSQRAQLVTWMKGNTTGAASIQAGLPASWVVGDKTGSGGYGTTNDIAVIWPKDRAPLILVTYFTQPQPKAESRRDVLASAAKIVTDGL
T6 sequence (Q9F663 25-293 limits assumed): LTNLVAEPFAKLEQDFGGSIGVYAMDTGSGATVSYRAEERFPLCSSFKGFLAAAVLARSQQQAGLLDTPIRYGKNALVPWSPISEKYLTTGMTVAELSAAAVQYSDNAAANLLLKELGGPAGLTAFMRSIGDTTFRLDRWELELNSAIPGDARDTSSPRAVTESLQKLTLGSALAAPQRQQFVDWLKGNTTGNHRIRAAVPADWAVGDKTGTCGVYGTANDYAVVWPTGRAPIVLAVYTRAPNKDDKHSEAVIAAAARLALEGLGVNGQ
T4 sequence (P0AD64 22-286): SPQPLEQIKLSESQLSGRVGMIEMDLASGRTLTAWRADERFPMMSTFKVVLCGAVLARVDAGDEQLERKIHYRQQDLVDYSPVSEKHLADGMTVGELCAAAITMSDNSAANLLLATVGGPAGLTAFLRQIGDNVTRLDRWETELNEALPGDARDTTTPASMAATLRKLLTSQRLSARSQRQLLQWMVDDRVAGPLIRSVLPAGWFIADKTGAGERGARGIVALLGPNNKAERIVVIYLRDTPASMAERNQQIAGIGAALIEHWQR
Chain of AmpC P. aeruginosa (P24735 27-397): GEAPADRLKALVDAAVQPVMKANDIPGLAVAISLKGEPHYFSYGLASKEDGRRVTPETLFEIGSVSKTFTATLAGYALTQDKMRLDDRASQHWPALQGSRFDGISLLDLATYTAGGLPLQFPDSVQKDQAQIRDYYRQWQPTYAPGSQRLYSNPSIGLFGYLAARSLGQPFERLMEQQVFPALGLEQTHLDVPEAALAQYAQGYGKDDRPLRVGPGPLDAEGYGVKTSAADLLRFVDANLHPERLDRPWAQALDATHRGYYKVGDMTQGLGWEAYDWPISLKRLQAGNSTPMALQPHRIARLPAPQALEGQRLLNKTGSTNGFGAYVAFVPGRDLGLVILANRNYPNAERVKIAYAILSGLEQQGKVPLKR
Chain of AmpC (P99) (P05364 21-381): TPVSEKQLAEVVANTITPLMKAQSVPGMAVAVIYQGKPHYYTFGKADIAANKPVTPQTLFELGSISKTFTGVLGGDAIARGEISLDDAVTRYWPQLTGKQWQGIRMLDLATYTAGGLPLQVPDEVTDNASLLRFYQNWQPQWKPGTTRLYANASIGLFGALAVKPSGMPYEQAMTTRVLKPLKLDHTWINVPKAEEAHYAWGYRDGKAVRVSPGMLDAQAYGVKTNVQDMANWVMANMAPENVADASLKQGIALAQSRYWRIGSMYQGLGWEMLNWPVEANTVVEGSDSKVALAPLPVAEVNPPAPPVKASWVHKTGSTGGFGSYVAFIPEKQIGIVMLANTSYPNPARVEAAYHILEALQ
T3 sequence (P13661 26-276): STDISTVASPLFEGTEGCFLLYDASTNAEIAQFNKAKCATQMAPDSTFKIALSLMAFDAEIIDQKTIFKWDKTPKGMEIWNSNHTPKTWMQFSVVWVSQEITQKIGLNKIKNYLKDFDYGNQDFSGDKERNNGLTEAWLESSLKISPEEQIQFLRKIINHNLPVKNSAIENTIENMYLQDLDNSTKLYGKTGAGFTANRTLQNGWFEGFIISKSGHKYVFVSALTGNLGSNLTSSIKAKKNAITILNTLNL
T2 sequence (Q51574 22-275): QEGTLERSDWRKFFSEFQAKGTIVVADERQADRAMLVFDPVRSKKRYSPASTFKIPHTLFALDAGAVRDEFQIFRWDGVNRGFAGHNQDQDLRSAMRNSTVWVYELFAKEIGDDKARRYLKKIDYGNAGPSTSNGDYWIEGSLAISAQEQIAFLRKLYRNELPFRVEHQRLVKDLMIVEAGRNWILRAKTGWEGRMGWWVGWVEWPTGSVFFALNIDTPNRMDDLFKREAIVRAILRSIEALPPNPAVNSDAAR
T1 sequence (Q6XEC0 23-265 limits assumed): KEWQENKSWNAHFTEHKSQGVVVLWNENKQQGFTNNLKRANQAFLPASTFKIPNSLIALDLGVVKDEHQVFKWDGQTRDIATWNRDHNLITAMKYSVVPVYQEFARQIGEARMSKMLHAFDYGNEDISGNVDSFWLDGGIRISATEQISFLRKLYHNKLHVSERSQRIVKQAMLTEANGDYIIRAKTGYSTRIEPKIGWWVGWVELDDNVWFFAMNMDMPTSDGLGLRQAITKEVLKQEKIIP
T5 sequence (P62593 24-286 limits assumed): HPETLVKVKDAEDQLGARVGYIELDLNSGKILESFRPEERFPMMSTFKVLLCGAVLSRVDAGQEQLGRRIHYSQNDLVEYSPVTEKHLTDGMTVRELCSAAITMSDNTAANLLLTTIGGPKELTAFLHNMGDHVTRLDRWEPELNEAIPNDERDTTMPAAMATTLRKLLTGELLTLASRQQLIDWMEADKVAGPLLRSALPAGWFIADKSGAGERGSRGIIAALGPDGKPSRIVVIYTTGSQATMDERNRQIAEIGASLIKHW
T7 sequence (Q06778 21-266): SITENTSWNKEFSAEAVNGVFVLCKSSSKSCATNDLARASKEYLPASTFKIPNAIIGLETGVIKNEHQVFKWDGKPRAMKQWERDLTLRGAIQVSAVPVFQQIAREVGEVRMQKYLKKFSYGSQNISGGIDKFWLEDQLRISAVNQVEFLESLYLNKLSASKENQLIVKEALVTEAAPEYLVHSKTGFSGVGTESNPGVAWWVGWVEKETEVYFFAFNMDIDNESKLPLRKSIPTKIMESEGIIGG

SMILES | IC50 (OXA-48) | MIC [1] | MIC (E. coli RGN238 (OXA-1)) | MIC [3] | MIC [4] | MIC [5] | MIC [8] | MIC [9] | MIC [10] | MIC [15] | MIC (E. cloacae P99 (AmpC)) | IC50 (OXA-15) | IC50 (OXA-1) | IC50 (SHV-1) | IC50 (TEM-1) | IC50 (KPC-2) | IC50 (AmpC P. aeruginosa) | IC50 (OXA-11) | IC50 (AmpC (P99)) | IC50 (CTX-M-15) | further results
O=C1N2CC=C(c3cnoc3)C(C2)N1OS(=O)(=O)[O-].[Na+] (stereo not drawn) [Example 5, Sodium (7-oxo-4-isoxazol-4-yl-1,6-diaza-bicyclo[3.2.1]oct-3-en-6-yl) sulfate] | 5.7 nM | 1 µg/mL | > 32 µg/mL | > 32 µg/mL | 1 µg/mL | > 32 µg/mL | > 32 µg/mL | > 32 µg/mL | 16 µg/mL | 2 µg/mL | 8 µg/mL | 94 nM | 450 nM | 25 nM | 11 nM | 270 nM | 1500 nM | 2200 nM | 670 nM | 6.9 nM | MIC [2]: 16 µg/mL; MIC [6]: > 32 µg/mL; MIC [7]: > 32 µg/mL; MIC [11]: > 32 µg/mL; MIC [12]: > 32 µg/mL; MIC [13]: > 32 µg/mL; MIC [14]: > 32 µg/mL; MIC [16]: 16 µg/mL; MIC [17]: 8 µg/mL; MIC [18]: > 32 µg/mL; MIC [19]: > 32 µg/mL; MIC [20]: 2 µg/mL
O=C1N2CC(c3ccncc3)=CC(C2)N1OS(=O)(=O)[O-].[Na+] (stereo not drawn) [Example 33, Sodium [3-(4-pyridyl)-7-oxo-1,6-diazabicyclo[3.2.1]oct-3-en-6-yl]sulfate] | 12 nM | 8 µg/mL | 4 µg/mL | 16 µg/mL | 4 µg/mL | > 32 µg/mL | 8 µg/mL | 8 µg/mL | 4 µg/mL | 16 µg/mL | 8 µg/mL | 110 nM | 690 nM | 2.3 nM | 1 nM | 9 nM | 90 nM | 210 nM | 31 nM | 0.79 nM | MIC [21]: 4 µg/mL; MIC [11]: 32 µg/mL; MIC [12]: 16 µg/mL; MIC [13]: 8 µg/mL; MIC [14]: 8 µg/mL; MIC [16]: 4 µg/mL; MIC [17]: 16 µg/mL; MIC [19]: 32 µg/mL; MIC [20]: 16 µg/mL; MIC combination of CAZ and compounds of the invention at 4 μg/mL [22]: >128 µg/mL
COc1ncc(C2=CC3CN(C2)C(=O)N3OS(=O)(=O)[O-])s1.[Na+] (stereo not drawn) [Example 39, Sodium [3-(2-methoxythiazol-5-yl)-7-oxo-1,6-diazabicyclo[3.2.1]oct-3-en-6-yl] sulfate] | 0.99 nM |  |  | > 32 µg/mL |  | > 32 µg/mL | > 32 µg/mL |  |  | > 32 µg/mL | > 32 µg/mL | 79 nM | 220 nM | 3.2 nM | 1.4 nM | 11 nM | 240 nM | 140 nM | 46 nM | 0.62 nM | MIC [21]: > 32 µg/mL
